Source: publication PMC3295836 (Bioorganic & medicinal chemistry letters, 2012)
Several values for one entry are separate records, joined by “and”; a condition that tells them apart may be missing. Identical values can stand only once.

Assays:
[1] = tested on: anthrax lethal toxin (LT; PA + LF); design: species or system Fischer 344 rats; conditions: rat, in vivo
[2] = biological target: anthrax lethal factor (LF) (Bacillus anthracis, UniProt P15917); format: biochemical
[3] = t = 30 min
in vivo = conditions: NZW, rabbit, sc, 10 mg/kg

anthrax lethal factor (LF), sequence (P15917 34-809 limits assumed): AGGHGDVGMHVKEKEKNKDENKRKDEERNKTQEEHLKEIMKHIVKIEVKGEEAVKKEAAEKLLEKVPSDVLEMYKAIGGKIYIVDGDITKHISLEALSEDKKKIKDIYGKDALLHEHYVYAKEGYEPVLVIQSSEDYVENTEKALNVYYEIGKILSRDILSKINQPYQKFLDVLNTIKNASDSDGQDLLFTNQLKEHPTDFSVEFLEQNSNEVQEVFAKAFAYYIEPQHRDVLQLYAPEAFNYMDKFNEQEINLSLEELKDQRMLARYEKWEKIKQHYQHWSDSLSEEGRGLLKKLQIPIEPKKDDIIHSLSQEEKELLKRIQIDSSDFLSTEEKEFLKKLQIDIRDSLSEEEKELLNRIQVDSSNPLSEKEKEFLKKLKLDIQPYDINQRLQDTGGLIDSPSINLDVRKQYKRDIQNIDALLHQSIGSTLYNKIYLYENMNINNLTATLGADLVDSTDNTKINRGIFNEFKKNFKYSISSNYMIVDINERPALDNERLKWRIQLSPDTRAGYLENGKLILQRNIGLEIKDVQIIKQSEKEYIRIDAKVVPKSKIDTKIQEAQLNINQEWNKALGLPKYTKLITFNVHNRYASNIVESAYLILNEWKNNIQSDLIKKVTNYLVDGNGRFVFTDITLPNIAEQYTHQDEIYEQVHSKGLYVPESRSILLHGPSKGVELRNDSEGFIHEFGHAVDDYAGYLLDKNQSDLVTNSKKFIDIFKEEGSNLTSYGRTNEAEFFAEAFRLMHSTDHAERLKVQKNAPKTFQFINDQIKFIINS

SMILES: Cc1cc(O[C@H](CCCCNCc2ccc(F)cc2)C(=O)NO)cc(C)c1F [LFI 3]
- rMST = MST(LFI)/MST(controls) [1]: 16.0
- surv (number of survivors per group) [1]: 0/3

SMILES: Cc1cc(C[C@H](CCCCN[C@H](Cc2ccccc2)c2ccc(F)cc2)C(=O)NO)cc(C)c1F [LFI 15]
- LF (FRET) KinM) [2]: sub-nanomolar

SMILES: Cc1cc(N[C@H](CCCCNCc2ccc(F)cc2)C(=O)NO)cc(C)c1F [LFI 1]
- rMST = MST(LFI)/MST(controls) [1]: 16.8
- surv (number of survivors per group) [1]: 3/5 and 3/3

SMILES: CC[C@@H](NCCCC[C@@H](Cc1cc(C)c(F)c(C)c1)C(=O)NO)c1ccc(F)cc1 [LFI 11]
- difference in potency against LF between analogs [2]: 50 fold

SMILES: Cc1cc(C[C@H](CCCCNCc2ccc(F)cc2)C(=O)NO)cc(C)c1F [LFI 2]
- rMST = MST(LFI)/MST(controls) [1]: 19.3
- surv (number of survivors per group) [1]: 1/3 and 3/3

SMILES: CCC(NCCCC[C@@H](Oc1cc(C)c(F)c(C)c1)C(=O)NO)c1ccc(F)cc1 (stereo partly shown) [LFI 19]
- surv (number of survivors per group) [1]: 1/3
- M = microsome stability, percent of compound remaining [3]: < 10%

SMILES: CCC(NCCCC[C@@H](C[C@@H](OC)c1ccc(F)cc1)C(=O)NO)c1ccc(F)cc1 (stereo partly shown) [LFI 20]
- Cmax (in vivo): 561 ng/mL

SMILES: CCC(NCCCC[C@@H](Cc1cc(C)c(F)c(C)c1)C(=O)NO)c1ccc(F)cc1 (stereo partly shown) [LFI 18]
- surv (number of survivors per group) [1]: protect all of the animals and 3/3 and 5/6

SMILES: CO[C@H](C[C@H](CCCCNCc1ccc(F)cc1)C(=O)NO)c1ccc(F)cc1 [LFI 4]
- surv (number of survivors per group) [1]: one animal was lost
